One may read the MIC as the smallest concentration in the dilution series that meets the test's criterion for growth inhibition.

These results are taken from patent US9833497B2, “Human originated EGF domain proteins and use of the same” (CHENGDU SOURCEBIO LIMITED-LIABILITY COMPANY, priority 2013, dated 2017).

Common to all, as to type: cell-based
One experiment deals with Proteus vulgaris. Briefly: MIC against Gram-negative bacteria: Proteus vulgaris. The settings on record: 5×10^5 CFU/mL. In short, it runs like this: (§1)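 MIC = lowest concentration of recombinant protein showing no growth. Test proteins: purified human-derived EGF domain proteins, two-fold dilution series, three wells per concentration; inoculum 5×10^5 CFU/mL in LB; incubation 37° C with shaking at 175 rpm.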

In a further experiment the test system is Klebsiella pneumonia. As to the kind of experiment: MIC against Gram-negative bacteria: Klebsiella pneumonia. The settings on record: 5×10^5 CFU/mL. A digest of the protocol: as §1
The subject of the next experiment is Citrobacter diversus. As to the kind of experiment: MIC against Gram-negative bacteria: Citrobacter diversus. The settings on record: 5×10^5 CFU/mL. A digest of the protocol: as §1
Another experiment concerns E. coli BL21. As to the kind of experiment: MIC against Gram-negative bacteria: E. coli BL21. The settings on record: 5×10^5 CFU/mL. In short, it runs like this:
as §1

The test system of another experiment is Moraxella catarrhalis. Briefly: MIC against Gram-negative bacteria: Moraxella catarrhalis. The settings on record: 5×10^5 CFU/mL. A digest of the protocol: as §1
The subject of a further experiment is Enterobacter cloacae. Briefly: MIC against Gram-negative bacteria: Enterobacter cloacae. The settings on record: 5×10^5 CFU/mL. A digest of the protocol: as §1
The test system of the next experiment is Proteus mirabilis. Briefly: MIC against Gram-negative bacteria: Proteus mirabilis. The settings on record: 5×10^5 CFU/mL. A digest of the protocol:
as §1

The subject of a further experiment is Aeromonas hydrophila. As to the kind of experiment: MIC against Gram-negative bacteria: Aeromonas hydrophila. The settings on record: 5×10^5 CFU/mL. In short, it runs like this:
as §1

Another experiment has as its system Serratia marcescens. Briefly: MIC against Gram-negative bacteria: Serratia marcescens. The settings on record: 5×10^5 CFU/mL. In short, it runs like this: as §1
For a further experiment, the system named is E. coli DH5α. As to the kind of experiment: Antibacterial activity: MIC and growth curve against E. coli DH5α in 96-well plate. The settings on record: minimal inhibitory concentration against E. coli DH5α; 96-well plate, 5×10^5 CFU/mL, 37° C., judged after 8 h. A digest of the protocol:
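Log-phase DH5α (OD600 about 0.5, 37° C, 185 rpm in LB) was pelleted, resuspended in fresh LB and seeded at 5×10^5 CFU/mL with recombinant protein at 50, 25 and 12.5 μg/mL (two-fold series), in triplicate. Plates were shaken at 175 rpm, 37° C, and OD600 was read every 30 min. MIC was the lowest concentration with no growth.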

The next experiment deals with Pseudomonas aeruginosa. Briefly: MIC against Gram-negative bacteria: Pseudomonas aeruginosa. The settings on record: 5×10^5 CFU/mL. In short, it runs like this:
as §1

Setting [1] is: E. coli BL21, 10 h cultivation at 37° C.

In the case of “PRT192 (CPGSGERRICSHHGVCSNEGKCICQPDWTGKDC; listed as Homo sapiens)”, in the experiment on Proteus vulgaris (10 h cultivation at 37° C.), the “MIC (μg/mL) P. vulgaris” value is 50 µg/mL. Moreover, the “MIC (μg/mL) K. pneumonia” value against Klebsiella pneumonia (10 h cultivation at 37° C.) is 12.5 µg/mL. Besides, in the experiment with Citrobacter diversus (10 h cultivation at 37° C.), the “MIC (μg/mL) C. diversus” value came out at 25 µg/mL. Also, the “MIC (μg/mL) E. coli BL21” value in the experiment on E. coli BL21 (setting [1]) is 50 µg/mL. In addition, the “MIC (μg/mL) M. catarrhalis” value in the experiment on Moraxella catarrhalis (10 h cultivation at 37° C.) is 12.5 µg/mL. The “MIC (μg/mL) E. cloacae” value in the experiment on Enterobacter cloacae (10 h cultivation at 37° C.) was 25 µg/mL. For the same substance, the “MIC (μg/mL) P. mirabilis” value against Proteus mirabilis (10 h cultivation at 37° C.) is 25 µg/mL. Besides, the “MIC (μg/mL) A. hydrophila” value in the experiment with Aeromonas hydrophila (10 h cultivation at 37° C.) stood at 50 µg/mL. In the experiment with Serratia marcescens (10 h cultivation at 37° C.), the “MIC (μg/mL) S. marcescens” value stood at 12.5 µg/mL. Also, the minimum inhibitory concentration (MIC) in the experiment on E. coli DH5α worked out at 25 µg/mL. For the same substance, the “MIC (μg/mL) P. aeruginosa” value with Pseudomonas aeruginosa (10 h cultivation at 37° C.) came out at 25 µg/mL.

Consider “PRT524 (CNCSRRGTIEAAMPECDRDSGQCRCKPRITGRQCDRCASGFYRFPECVP; listed as Homo sapiens)”, for which the “MIC against P. vulgaris” value in the experiment on Proteus vulgaris (96-well plate, 37° C., 10 h) was found to be 25 µg/mL. Also, in the experiment on Klebsiella pneumonia (96-well plate, 37° C., 10 h), the “MIC against K. pneumonia” value came out at 25 µg/mL. The “MIC against C. diversus” value against Citrobacter diversus (96-well plate, 37° C., 10 h) was 100 µg/mL. Also, the “MIC against E. coli BL21” value in the experiment on E. coli BL21 (96-well plate, 37° C., 10 h) came out at 12.5 µg/mL. Also, in the experiment on Moraxella catarrhalis (96-well plate, 37° C., 10 h), the “MIC against M. catarrhalis” value was 25 µg/mL. In addition, the “MIC against E. cloacae” value in the experiment on Enterobacter cloacae (96-well plate, 37° C., 10 h) came out at 12.5 µg/mL. Further, in the experiment with Proteus mirabilis (96-well plate, 37° C., 10 h), the “MIC against P. mirabilis” value came out at 12.5 µg/mL. In addition, in the experiment on Aeromonas hydrophila (96-well plate, 37° C., 10 h), the “MIC against A. hydrophila” value came to 25 µg/mL. Further, in the experiment with Serratia marcescens (96-well plate, 37° C., 10 h), the “MIC against S. marcescens” value came to 50 µg/mL. The substance further had an MIC with E. coli DH5α of 12.5 µg/mL. Further, the “MIC against P. aeruginosa” value against Pseudomonas aeruginosa (96-well plate, 37° C., 10 h) is 12.5 µg/mL.

“PRT889 (DVNECVSNPCQNDATCLDQIGEFQCICMPGYEGVHCE; listed as Homo sapiens)”: in the experiment with Proteus vulgaris (10 h cultivation at 37° C.), the “MIC (μg/mL) P. vulgaris” value was 12.5 µg/mL. The “MIC (μg/mL) K. pneumonia” value against Klebsiella pneumonia (10 h cultivation at 37° C.) is 12.5 µg/mL. Further, the “MIC (μg/mL) C. diversus” value in the experiment on Citrobacter diversus (10 h cultivation at 37° C.) amounted to 12.5 µg/mL. The “MIC (μg/mL) E. coli BL21” value against E. coli BL21 (setting [1]) came out at 12.5 µg/mL. Also, the “MIC (μg/mL) M. catarrhalis” value with Moraxella catarrhalis (10 h cultivation at 37° C.) came out at 12.5 µg/mL. Moreover, in the experiment on Enterobacter cloacae (10 h cultivation at 37° C.), the “MIC (μg/mL) E. cloacae” value is 12.5 µg/mL. The “MIC (μg/mL) P. mirabilis” value with Proteus mirabilis (10 h cultivation at 37° C.) stood at 25 µg/mL. In the experiment on Aeromonas hydrophila (10 h cultivation at 37° C.), the “MIC (μg/mL) A. hydrophila” value amounted to 12.5 µg/mL. In addition, the “MIC (μg/mL) S. marcescens” value in the experiment on Serratia marcescens (10 h cultivation at 37° C.) is 25 µg/mL. The MIC in the experiment on E. coli DH5α is 25 µg/mL. In addition, the “MIC (μg/mL) P. aeruginosa” value in the experiment with Pseudomonas aeruginosa (10 h cultivation at 37° C.) was found to be 25 µg/mL.

Regarding “PRT1377 (PASACPGGCGPRELCRAGQCVCVEGFRGPDC; listed as Homo sapiens)”, the “MIC against P. vulgaris” value in the experiment on Proteus vulgaris (Proteus vulgaris, 10 h cultivation at 37° C.) came out at 50 µg/mL. Also, the “MIC against K. pneumonia” value against Klebsiella pneumonia (Klebsiella pneumonia, 10 h cultivation at 37° C.) amounted to 50 µg/mL. Besides, the “MIC against C. diversus” value against Citrobacter diversus (Citrobacter diversus, 10 h cultivation at 37° C.) turned out to be 12.5 µg/mL. For the same substance, the “MIC against E. coli BL21” value in the experiment on E. coli BL21 (setting [1]) amounted to 50 µg/mL. Besides, the “MIC against M. catarrhalis” value in the experiment with Moraxella catarrhalis (Moraxella catarrhalis, 10 h cultivation at 37° C.) is 50 µg/mL. Moreover, the “MIC against E. cloacae” value against Enterobacter cloacae (Enterobacter cloacae, 10 h cultivation at 37° C.) came to 12.5 µg/mL. Besides, the “MIC against P. mirabilis” value against Proteus mirabilis (Proteus mirabilis, 10 h cultivation at 37° C.) came to 12.5 µg/mL. Further, the “MIC against A. hydrophila” value in the experiment with Aeromonas hydrophila (Aeromonas hydrophila, 10 h cultivation at 37° C.) was found to be 50 µg/mL. In the experiment on Serratia marcescens (Serratia marcescens, 10 h cultivation at 37° C.), the “MIC against S. marcescens” value is 12.5 µg/mL. This substance also yielded an MIC with E. coli DH5α of 25 µg/mL. Besides, the “MIC against P. aeruginosa” value against Pseudomonas aeruginosa (Pseudomonas aeruginosa, 10 h cultivation at 37° C.) is 12.5 µg/mL.

Consider “PRT712 (GSNSCQLNNGGCSQLCLPTSETTRTCMCTVGYYLQKNRMSCQ; listed as Homo sapiens)”, for which the “MIC P. vulgaris” value in the experiment with Proteus vulgaris (96-well plate, 37° C., 10 h) is 25 µg/mL. Also, the “MIC K. pneumonia” value against Klebsiella pneumonia (96-well plate, 37° C., 10 h) came to 25 µg/mL. In the experiment with Citrobacter diversus (96-well plate, 37° C., 10 h), the “MIC C. diversus” value stood at 12.5 µg/mL. Moreover, the “MIC E. coli BL21” value with E. coli BL21 (96-well plate, 37° C., 10 h) is 12.5 µg/mL. The “MIC M. catarrhalis” value against Moraxella catarrhalis (96-well plate, 37° C., 10 h) turned out to be 25 µg/mL. The “MIC E. cloacae” value with Enterobacter cloacae (96-well plate, 37° C., 10 h) is 50 µg/mL. Also, in the experiment with Proteus mirabilis (96-well plate, 37° C., 10 h), the “MIC P. mirabilis” value worked out at 50 µg/mL. In addition, in the experiment with Aeromonas hydrophila (96-well plate, 37° C., 10 h), the “MIC A. hydrophila” value is 25 µg/mL. Besides, in the experiment on Serratia marcescens (96-well plate, 37° C., 10 h), the “MIC S. marcescens” value was 12.5 µg/mL. In the experiment with E. coli DH5α, this substance registered an MIC of 25 µg/mL. Besides, the “MIC P. aeruginosa” value against Pseudomonas aeruginosa (96-well plate, 37° C., 10 h) was found to be 50 µg/mL.
